Laboratory results from ChEMBL document CHEMBL1140731 (J Med Chem, 2008).
In brackets after ≈: the same amount, converted by molar mass. Activity calls are given as the source filed them. The rule behind the calls is not given here.

Columns and labels:
[1] = target: Transient receptor potential cation channel subfamily V member 1 (Homo sapiens, UniProt Q8NER1); test: Blockade of human TRPV1 receptor assessed as inhibition of capsaicin-induced calcium flux
[2] = Oral bioavailability in dog at 5 umol/kg administered in oleic acid/cremophor/PEG400 (80:10:10); details: in vivo
[3] = Volume of distribution beta in monkey at 5 umol/kg, iv administered in PEG400; type: ADME, organism-based, Macaca mulatta; details: rhesus monkey, in vivo, read-out: Vbeta
[4] = Oral bioavailability in rat at 10 umol/kg administered in PEG400; type: ADME, organism-based; details: in vivo
[5] = Half life in dog at 5 umol/kg, iv administered in PEG400; type: ADME, organism-based, Canis lupus familiaris; details: in vivo
[6] = Cmax in dog at 5 umol/kg, po administered in PEG400; details: in vivo
[7] = Half life in rat at 10 umol/kg, iv administered in PEG400; type: ADME, organism-based; details: in vivo
[8] = Aqueous solubility at pH 6.8; type: physicochemical; details: buffer
[9] = Volume of distribution beta in dog at 5 umol/kg, iv administered in PEG400; type: ADME, organism-based, Canis lupus familiaris; details: in vivo, read-out: Vbeta
[10] = Aqueous solubility at pH 1; type: physicochemical; details: buffer
[11] = species on record: Rattus norvegicus; test: Decrease in carrageenan-induced thermal hyperalgesia in Sprague-Dawley rat; type: functional
[12] = Half life in monkey at 5 umol/kg, iv administered in PEG400; type: ADME, organism-based, Macaca mulatta; details: rhesus monkey, in vivo
[13] = Permeability across human Caco-2 cells; type: ADME, cell-based
[14] = Cmax in monkey at 10 umol/kg, po administered in PEG400; type: ADME, organism-based, Macaca mulatta; set-up: dose 10 umol/kg, route oral; details: rhesus monkey, in vivo
[15] = Volume of distribution beta in rat at 10 umol/kg, iv administered in PEG400; type: ADME, organism-based; details: in vivo, read-out: Vbeta
[16] = Oral bioavailability in monkey at 10 umol/kg administered in PEG400; type: ADME, organism-based, Macaca mulatta; details: rhesus monkey, in vivo
[17] = Ratio of drug level in brain to plasma in Sprague-Dawley rat; type: ADME; details: read-out: BPR
[18] = Oral bioavailability in dog at 5 umol/kg administered in PEG400; details: in vivo
[19] = test system: Rattus norvegicus; test: Decrease in carrageenan-induced thermal hyperalgesia in Sprague-Dawley rat at 100 umol/kg; type: functional, organism-based
[20] = Cmax in rat at 10 umol/kg, po administered in PEG400; type: ADME, organism-based; set-up: dose 10 umol/kg, route oral; details: in vivo
[21] = Cmax in dog at 5 umol/kg, po administered in oleic acid/cremophor/PEG400 (80:10:10); details: in vivo

Chain of Transient receptor potential cation channel subfamily V member 1 (Q8NER1 whole entry): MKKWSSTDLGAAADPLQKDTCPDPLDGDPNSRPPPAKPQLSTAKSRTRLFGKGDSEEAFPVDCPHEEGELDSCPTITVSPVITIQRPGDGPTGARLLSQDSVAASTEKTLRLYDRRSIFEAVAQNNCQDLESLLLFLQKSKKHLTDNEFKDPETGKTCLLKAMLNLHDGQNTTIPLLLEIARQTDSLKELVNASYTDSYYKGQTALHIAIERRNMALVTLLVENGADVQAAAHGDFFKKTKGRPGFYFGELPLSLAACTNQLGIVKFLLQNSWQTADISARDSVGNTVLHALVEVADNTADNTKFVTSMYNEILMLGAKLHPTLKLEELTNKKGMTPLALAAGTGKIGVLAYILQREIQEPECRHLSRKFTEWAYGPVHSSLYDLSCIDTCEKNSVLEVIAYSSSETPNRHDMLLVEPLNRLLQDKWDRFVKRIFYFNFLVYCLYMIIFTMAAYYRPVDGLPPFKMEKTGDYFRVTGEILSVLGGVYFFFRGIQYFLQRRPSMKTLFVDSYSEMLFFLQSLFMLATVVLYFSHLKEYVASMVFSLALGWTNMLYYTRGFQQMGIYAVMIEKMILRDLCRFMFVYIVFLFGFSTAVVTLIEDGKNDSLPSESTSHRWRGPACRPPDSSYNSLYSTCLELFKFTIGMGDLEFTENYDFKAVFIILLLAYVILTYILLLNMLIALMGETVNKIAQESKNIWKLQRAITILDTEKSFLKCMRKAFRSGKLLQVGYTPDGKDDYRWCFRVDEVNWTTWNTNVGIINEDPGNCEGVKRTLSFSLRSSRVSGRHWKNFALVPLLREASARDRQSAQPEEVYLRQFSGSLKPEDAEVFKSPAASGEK

| IC50 [1] | Structure (SMILES) | other results |
| --- | --- | --- |
| 0.034 µM | CC(C)(C)c1ccc2c(c1)CC[C@H]2N/C(=N/C#N)Nc1cccc2[nH]ncc12 |  |
| 0.003 µM | O=C(Nc1cccc2[nH]ncc12)NC1CCc2cc(C(F)(F)F)ccc21 (stereo unspecified) |  |
| 0.046 µM | Cc1cccc2c1CCC2NC(=O)Nc1cccc2[nH]ncc12 (stereo unspecified) |  |
| 0.01 µM | CC(C)(C)c1ccc2c(c1)CC(NC(=O)Nc1cccc3[nH]ncc13)C2 (stereo unspecified) |  |
| 0.014 µM | CC(C)(C)c1cccc2c1CCC2NC(=O)Nc1cccc2[nH]ncc12 (stereo unspecified) |  |
| 0.01 µM | O=C(Nc1cccc2[nH]ncc12)NC1CCc2c1cccc2N1CCCCC1 (stereo unspecified) |  |
| 0.01 µM | O=C(Nc1cccc2[nH]ncc12)NC1CCc2cc(Cl)ccc21 (stereo unspecified) |  |
| 0.005 µM | O=C(Nc1cccc2[nH]ncc12)NC1CCc2c(C3CC3)cccc21 (stereo unspecified) |  |
| 0.004 µM | O=C(Nc1cccc2[nH]ncc12)NC1CCc2cc(C3CC3)ccc21 (stereo unspecified) |  |
| 0.01 µM | O=C(Nc1cccc2[nH]ncc12)NC1CCc2c1cccc2C(F)(F)F (stereo unspecified) |  |
| 0.097 µM | CC(C)(C)c1ccc2c(c1)CC[C@H]2NC(=S)Nc1cccc2[nH]ncc12 |  |
| 0.009 µM | O=C(Nc1cccc2[nH]ncc12)NC1CCc2cc(Br)ccc21 (stereo unspecified) |  |
| 5.82 µM | O=C(Nc1cccc2[nH]ncc12)NC1CCc2ncccc21 (stereo unspecified) |  |
| 1.35 µM | O=C(Nc1cccc2[nH]ncc12)NC1CCc2cccnc21 (stereo unspecified) |  |
| 0.04 µM | COc1ccc2c(c1)CCC2NC(=O)Nc1cccc2[nH]ncc12 (stereo unspecified) |  |
| 0.019 µM | CC(C)(C#N)c1cccc2c1CCC2NC(=O)Nc1cccc2[nH]ncc12 (stereo unspecified) |  |

| IC50 [1] | Structure (SMILES) | other results |
| --- | --- | --- |
| 0.052 µM | O=C(Nc1cccc2[nH]ncc12)NC1CCc2cc(F)ccc21 (stereo unspecified) |  |
| 0.011 µM | O=C(Nc1cccc2[nH]ncc12)NC1CCOc2cc(C(F)(F)F)ccc21 (stereo unspecified) |  |
|  | CC(C)(C)c1ccc2c(c1)CC[C@H]2NC(=O)Nc1cccc2[nH]ncc12 [ABT-102] | bioavailability [2]: 60%; Vd [3]: 1.7 L/kg; bioavailability [4]: 70%; half-life [5]: 1.8 h; Cmax [6]: 0.39 µg/mL; half-life [7]: 1.7 h; Solubility [8]: 0.0573 µg/mL (≈ 0.164 µM); Vd [9]: 1.6 L/kg; Solubility [10]: 0.102 µg/mL (≈ 0.293 µM); ED50 [11]: 20 µmol/kg; half-life [12]: 1.9 h; Papp [13]: > 180 nm/s; Cmax [14]: 0.31 µg/mL; Vd [15]: 2.8 L/kg; bioavailability [16]: 25%; Kp [17]: 0.32; bioavailability [18]: 22%; Activity [19]: Active; Cmax [20]: 0.25 µg/mL; Cmax [21]: 0.65 µg/mL |
| 0.005 µM | O=C(Nc1cccc2[nH]ncc12)NC1CCc2c1ccc(F)c2N1CCOCC1 (stereo unspecified) |  |
| 0.065 µM | O=C(Nc1cccc2[nH]ncc12)NC1CCc2c1cccc2N1CCOCC1 (stereo unspecified) |  |
| 0.035 µM | CC(C)(C)c1ccc2c(c1)CC(F)C2NC(=O)Nc1cccc2[nH]ncc12 (stereo unspecified) |  |
| 0.021 µM | O=C(Nc1cccc2[nH]ncc12)NC1CCc2c1cccc2N1CCCC1 (stereo unspecified) |  |
| 7.2 µM | Cc1ccc2c(c1)C(NC(=O)Nc1cccc3[nH]ncc13)CC2 (stereo unspecified) |  |
| 0.151 µM | O=C(Nc1cccc2[nH]ncc12)NC1CCc2ccccc21 (stereo unspecified) |  |
| 0.127 µM | CC(C)(CO)c1ccc2c(c1)CC[C@H]2NC(=O)Nc1cccc2[nH]ncc12 |  |
| 0.007 µM | CN1CCC(NC(=O)Nc2cccc3[nH]ncc23)c2ccc(C(F)(F)F)cc21 (stereo unspecified) |  |
| 0.014 µM | O=C(Nc1cccc2[nH]ncc12)NC1CCc2cc(N3CCCCC3)ccc21 (stereo unspecified) |  |
| 0.007 µM | O=C(Nc1cccc2[nH]ncc12)NC1CCc2c1cccc2N1CCC(C(F)(F)F)CC1 (stereo unspecified) |  |
| 0.216 µM | CC(C)(C)c1ccc2c(c1)CC(F)(F)C2NC(=O)Nc1cccc2[nH]ncc12 (stereo unspecified) |  |
| 0.595 µM | Cc1cccc2c1C(NC(=O)Nc1cccc3[nH]ncc13)CC2 (stereo unspecified) |  |
| 0.011 µM | Cc1ccc2c(c1)CCC2NC(=O)Nc1cccc2[nH]ncc12 (stereo unspecified) |  |
